Where a SMILES comes first, the peptide text is derived from it. Bridges are numbered along the chain shown (N, C = ends). [ ]: non-standard residue; d: D form. The star is where a group is joined. Bip = N[C@@H](Cc1ccc(-c2ccccc2)cc1)C(=O)O; Orn(N3) = [N-]=[N+]=NCCC[C@H](N)C(=O)O; Aha = [N-]=[N+]=NCC[C@H](N)C(=O)O; Cha = N[C@@H](CC1CCCCC1)C(=O)O; Carboxymethyl = O=C(O)C*; Orn = NCCC[C@H](N)C(=O)O; Dab = NCC[C@H](N)C(=O)O; Dap = NC[C@H](N)C(=O)O; Bn = c1ccc(C*)cc1; Propargyl = C#CC*

The target in the first test is T1, human PD-1 / PD-L1-Ig binding on Jurkat cell line over-expressing human PD-1 (Jurkat-PD-1) (Homo sapiens, UniProt Q15116).
T1 construct: expressed in transfected cells; host or cells: Jurkat
T1 sequence (Q15116 25-288): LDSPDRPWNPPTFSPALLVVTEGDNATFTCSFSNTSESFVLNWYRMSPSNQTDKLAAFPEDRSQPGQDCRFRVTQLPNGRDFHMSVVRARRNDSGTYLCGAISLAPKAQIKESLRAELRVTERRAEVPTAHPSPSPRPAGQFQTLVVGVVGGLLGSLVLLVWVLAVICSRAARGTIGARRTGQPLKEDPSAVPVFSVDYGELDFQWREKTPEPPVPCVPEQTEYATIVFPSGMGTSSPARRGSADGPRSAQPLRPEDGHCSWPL
Briefly: Jurkat-PD-1 Cell Binding High-Content Screening Assay (CBA). The class given is cell-based. Particulars: Jurkat HPD1_PDL1 IC50, Jurkat-PD-1 cells, PE-labeled PD-L1-Ig 20 nM final. In short, it runs like this: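 Jurkat-hPD-1 cells in DMEM with 10% fetal calf serum receive test compound and are held at 37° C for 2 h. PE-labeled PD-L1-Ig is added at 20 nM final and left for 1 hour. Cells are then fixed and Hoechst-stained, and binding is measured by imaging.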
A word on the IC50: it is the point on the concentration scale where inhibition reaches its midpoint. The compound `CC(C)C[C@H]1NC(=O)[C@H](CCCN)NC(=O)[C@H](C(C)C)NC(=O)[C@H](Cc2ccc(-c3ccccc3)cc2)NC(=O)[C@H](C(C)C)NC(=O)[C@H](Cc2c[nH]c3ccccc23)NC(=O)[C@H](CC(=O)O)NC(=O)[C@H](Cc2ccc(OCC(=O)O)cc2)NC(=O)[C@H](Cc2ccc(OCc3ccccc3)cc2)NC(=O)CSC[C@@H](C(=O)N[C@@H](C)C(N)=O)NC(=O)[C@H]([C@@H](C)O)NC(=O)[C@H](C(C)C)NC(=O)[C@H](CC2CCCCC2)NC(=O)[C@H](CCN)NC1=O` [Compound 1527] gave an IC50 of 103 nM.
In turn, `CC(C)C[C@H]1NC(=O)[C@H](CCCN)NC(=O)[C@H](C(C)C)NC(=O)[C@H](Cc2ccc(-c3ccccc3)cc2)NC(=O)[C@H](C(C)C)NC(=O)[C@H](Cc2c[nH]c3ccccc23)NC(=O)[C@H](CC(=O)O)NC(=O)[C@H](Cc2ccc(OCc3ccccc3)cc2)NC(=O)[C@H](CN)NC(=O)CSC[C@@H](C(=O)N[C@@H](C)C(N)=O)NC(=O)[C@H]([C@@H](C)O)NC(=O)[C@H](C(C)C)NC(=O)[C@H](CC2CCCCC2)NC(=O)[C@H](CCN)NC1=O` [Compound 1528] had an IC50 of 100 nM.
With `CC(C)C[C@H]1NC(=O)[C@H](CCCN)NC(=O)[C@H](C(C)C)NC(=O)[C@H](Cc2ccc(-c3ccccc3)cc2)NC(=O)[C@H](Cc2ccc(OCc3ccccc3)cc2)NC(=O)[C@H](Cc2c[nH]c3ccccc23)NC(=O)[C@H](CC(=O)O)NC(=O)[C@H](Cc2ccc(OCC(=O)O)cc2)NC(=O)[C@H](CN)NC(=O)CSC[C@@H](C(=O)N[C@@H](C)C(N)=O)NC(=O)[C@H]([C@@H](C)O)NC(=O)[C@H](C(C)C)NC(=O)[C@H](CC2CCCCC2)NC(=O)[C@H](CCN)NC1=O` [Compound 1529] ({CH2CO}-[Dap]Y(Carboxymethyl)DWY(Bn)[Bip]V[Orn][dL][Dab][Cha]VTCA-NH2; thioether N-14), the IC50 was determined as 43.5 nM.
The compound `CC(C)C[C@H]1NC(=O)[C@H](CCCN)NC(=O)[C@H](Cc2ccc(OCc3ccccc3)cc2)NC(=O)[C@H](Cc2ccc(-c3ccccc3)cc2)NC(=O)[C@H](C(C)C)NC(=O)[C@H](Cc2c[nH]c3ccccc23)NC(=O)[C@H](CC(=O)O)NC(=O)[C@H](Cc2ccc(OCC(=O)O)cc2)NC(=O)[C@H](CN)NC(=O)CSC[C@@H](C(=O)N[C@@H](C)C(N)=O)NC(=O)[C@H]([C@@H](C)O)NC(=O)[C@H](C(C)C)NC(=O)[C@H](CC2CCCCC2)NC(=O)[C@H](CCN)NC1=O` [Compound 1530] displayed an IC50 of 94.9 nM.
Same read-out and setting: under `CC(C)C[C@H]1NC(=O)[C@H](CCCN)NC(=O)[C@H](C(C)C)NC(=O)[C@H](Cc2ccc(-c3ccccc3)cc2)NC(=O)[C@H](C(C)C)NC(=O)[C@H](Cc2c[nH]c3ccccc23)NC(=O)[C@H](CC(=O)O)NC(=O)[C@H](Cc2ccc(OCC(=O)O)cc2)NC(=O)[C@H](CN)NC(=O)CSC[C@@H](C(=O)N[C@@H](C)C(N)=O)NC(=O)[C@H]([C@@H](C)O)NC(=O)[C@H](C(C)C)NC(=O)[C@H](CC2CCCCC2)NC(=O)[C@H](Cc2ccc(OCc3ccccc3)cc2)NC1=O` [Compound 1531] ({CH2CO}-[Dap]Y(Carboxymethyl)DWV[Bip]V[Orn][dL]Y(Bn)[Cha]VTCA-NH2; thioether N-14) stands 707 nM.
On the same count and under the same terms, under `CC(C)C[C@H]1NC(=O)[C@H](CCCN)NC(=O)[C@H](C(C)C)NC(=O)[C@H](Cc2ccc(-c3ccccc3)cc2)NC(=O)[C@H](C(C)C)NC(=O)[C@H](Cc2c[nH]c3ccccc23)NC(=O)[C@H](CC(=O)O)NC(=O)[C@H](Cc2ccc(OCC(=O)O)cc2)NC(=O)[C@H](CN)NC(=O)CSC[C@@H](C(=O)N[C@@H](C)C(N)=O)NC(=O)[C@H]([C@@H](C)O)NC(=O)[C@H](Cc2ccc(OCc3ccccc3)cc2)NC(=O)[C@H](CC2CCCCC2)NC(=O)[C@H](CCN)NC1=O` [Compound 1532] ({CH2CO}-[Dap]Y(Carboxymethyl)DWV[Bip]V[Orn][dL][Dab][Cha]Y(Bn)TCA-NH2; thioether N-14) stands 111 nM.
`CC(C)C[C@H]1NC(=O)[C@H](CCCN)NC(=O)[C@H](C(C)C)NC(=O)[C@H](Cc2ccc(-c3ccccc3)cc2)NC(=O)[C@H](C(C)C)NC(=O)[C@H](Cc2c[nH]c3ccccc23)NC(=O)[C@H](CC(=O)O)NC(=O)[C@H](Cc2ccc(OCC(=O)O)cc2)NC(=O)[C@H](CN)NC(=O)CSC[C@@H](C(=O)N[C@@H](C)C(=O)N[C@@H](Cc2ccc(OCc3ccccc3)cc2)C(N)=O)NC(=O)[C@H]([C@@H](C)O)NC(=O)[C@H](C(C)C)NC(=O)[C@H](CC2CCCCC2)NC(=O)[C@H](CCN)NC1=O` [Compound 1535] showed an IC50 of 128 nM.

Staying with this test, now noted: Jurkat-PD-1 cells, PE-labeled PD-L1-Ig 20 nM final; read-out: Jurkat HPD1_PDL1 IC50.
`CC(C)C[C@H]1NC(=O)[C@H](CCCN)NC(=O)[C@H](C(C)C)NC(=O)[C@H](Cc2ccc(-c3ccccc3)cc2)NC(=O)[C@H](C(C)C)NC(=O)[C@H](Cc2c[nH]c3ccccc23)NC(=O)[C@H](CC(=O)O)NC(=O)[C@H](Cc2ccc(OCC(=O)O)cc2)NC(=O)[C@H](CN)NC(=O)CSC[C@@H](C(=O)N[C@@H](C)C(N)=O)NC(=O)[C@H]([C@@H](C)O)NC(=O)[C@H](C(C)C)NC(=O)[C@H](CC2CCCCC2)NC(=O)[C@H]([C@@H](C)O)NC1=O` [Compound 1524] ({CH2CO}-[Dap]Y(Carboxymethyl)DWV[Bip]V[Orn][dL]T[Cha]VTCA-NH2; thioether N-14): the IC50 amounted to 9.2 nM.
`CC(C)C[C@H]1NC(=O)[C@H](CCCN)NC(=O)[C@H](C(C)C)NC(=O)[C@H](Cc2ccc(-c3ccccc3)cc2)NC(=O)[C@H](C(C)C)NC(=O)[C@H](Cc2c[nH]c3ccccc23)NC(=O)[C@H](CC(=O)O)NC(=O)[C@H](Cc2ccc(OCC(=O)O)cc2)NC(=O)[C@H](CN)NC(=O)CSC[C@@H](C(=O)N[C@@H](C)C(N)=O)NC(=O)[C@H]([C@@H](C)O)NC(=O)[C@H](C(C)C)NC(=O)[C@H](CC2CCCCC2)NC(=O)[C@H](Cc2cnc[nH]2)NC1=O` [Compound 1525]: the IC50 is 15.4 nM.
Regarding `C#CCOc1ccc(C[C@@H]2NC(=O)[C@H](CN)NC(=O)CSC[C@@H](C(=O)N[C@@H](CCN=[N+]=[N-])C(N)=O)NC(=O)[C@H]([C@@H](C)O)NC(=O)[C@H](C(C)C)NC(=O)[C@H](CC3CCCCC3)NC(=O)[C@H](CCN)NC(=O)[C@@H](CC(C)C)NC(=O)[C@H](CCCN)NC(=O)[C@H](CCC(=O)O)NC(=O)[C@H](Cc3ccc(-c4ccccc4)cc3)NC(=O)[C@H](C(C)C)NC(=O)[C@H](Cc3c[nH]c4ccccc34)NC(=O)[C@H](CC(=O)O)NC2=O)cc1` [Compound 1536] ({CH2CO}-[Dap]Y(Propargyl)DWV[Bip]E[Orn][dL][Dab][Cha]VTC[Aha]-NH2; thioether N-14), the IC50 is 59.3 nM.
For the compound `C#CCOc1ccc(C[C@@H]2NC(=O)[C@H](CN)NC(=O)CSC[C@@H](C(=O)N[C@@H](CCCN=[N+]=[N-])C(N)=O)NC(=O)[C@H]([C@@H](C)O)NC(=O)[C@H](C(C)C)NC(=O)[C@H](CC3CCCCC3)NC(=O)[C@H](CCN)NC(=O)[C@@H](CC(C)C)NC(=O)[C@H](CCCN)NC(=O)[C@H](CCC(=O)O)NC(=O)[C@H](Cc3ccc(-c4ccccc4)cc3)NC(=O)[C@H](C(C)C)NC(=O)[C@H](Cc3c[nH]c4ccccc34)NC(=O)[C@H](CC(=O)O)NC2=O)cc1` [Compound 1537] ({CH2CO}-[Dap]Y(Propargyl)DWV[Bip]E[Orn][dL][Dab][Cha]VTC[Orn(N3)]-NH2; thioether N-14), the IC50 is 101 nM.

These data come from patent US20250163104A1, “MACROCYCLIC IMMUNOMODULATORS” (priority 2021, published 2025).
